In BindingDB's records for doi:10.1016/j.bmc.2006.09.047 (Astellas Pharma, 2007):

Molecular target: PI3-kinase p110α (Bos taurus)
Assay: The test compounds and enzyme were mixed in buffer, and the substrate and [gamma-33P] ATP/ATP were added to the mixture to initiate the reaction. After allowing the reaction to proceed at room temperature for 120 min, wheat germ agglutinin-coated SPA beads (Amersham) was added. The mixture was left to stand for 5 min and then centrifuged. Radi
Conditions: pH 7.4

Row | SMILES | IC50
1 | Cc1nc2ccc(Cl)cn2c1-c1ccn(S(=O)(=O)c2ccc([N+](=O)[O-])cc2)n1 [3-{6-chloro-2-methylimidazo[1,2-a]pyridin-3-yl}-1-[(4-nitrobenzene)sulfonyl]-1H-pyrazole] | > 30 µM
2 | Cc1ccc([N+](=O)[O-])cc1S(=O)(=O)n1ccc(-c2cnc3ccc(Cl)cn23)c1 [3-{6-chloroimidazo[1,2-a]pyridin-3-yl}-1-[(2-methyl-5-nitrobenzene)sulfonyl]-1H-pyrrole] | 0.1 µM
